# Measured values reported in ChEMBL document CHEMBL1201862, “PubChem BioAssay data set” (2004).
# Values joined by “and” are separate entries in the source; they are usually repeats but may differ in a detail not shown here. Equal values may be shown once. Active and inactive are the calls of the source.
# How the values were obtained:
# fMet-Leu-Phe receptor = fMet-Leu-Phe receptor (Homo sapiens, UniProt P21462); assay: FPR ligands, dose response (AID 519); format: functional
# Cytochrome P450 2C9 = Cytochrome P450 2C9 (Homo sapiens, UniProt P11712)
# [1] = inhibitors of HIV Env-driven cell fusion, dose response, cherry-pick (AID 652057); format: functional, cell-based
# [2] = ZM109 Env clade C HIV-1 fusion inhibitors, dose response, HeLa effector, CEM target cells, luciferase, cherry-pick (AID 652058); format: functional, cell-based
# [3] = off-target signal loss in HeLa-CEM21 co-culture – HeLa F-luc CTL cells, cherry-picked, counter-screen for HIV-1 Env fusion inhibitor project, dose response (AID 652040); format: functional, cell-based;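 note: potency for signal decrease marking cytotoxic or nonspecific inhibition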
# [4] = inhibitors of clade B AD8 Env fusion, dose response, cell-based, cherry-pick (AID 652062); format: functional;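 note: luciferase signal from cell-cell fusion driven by HIV-1 clade B AD8 Env; potency is for inhibitors of fusion seen as a drop in luminescence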
# [5] = HIV Env cell-cell fusion inhibitors, dose response, HIV entry, plate reader, dry powder (AID 687023); format: functional, cell-based
# [6] = CEM21 cell cytotoxicity, dose response, cytotoxicity control, plate reader, dry powder (AID 687026); format: functional, cell-based
# [7] = HeLa cell cytotoxicity, dose response, cytotoxicity control, 24 h, plate reader, dry powder (AID 686928); format: functional, cell-based
# BHK-21 = assay: BHK-21 cell toxicity, dose response, cytotoxicity control, plate reader, cherry-pick samples (AID 687030); format: functional, cell-based; details: Mesocricetus auratus
# A549 = assay: A549 cell toxicity, dose response, cytotoxicity control, plate reader, cherry-pick samples (AID 687028); format: functional, cell-based; details: Homo sapiens
# [8] = target: NAD-dependent protein deacylase sirtuin-5, mitochondrial (Homo sapiens, UniProt Q9NXA8); assay: SIRT5 desuccinylase inhibitors, dose response, biochemical, fluorescence imaging, cherry-pick, set 5 (AID 720591);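 note: desuccinylation of succinyl peptide AMC substrate read as fluorescence after trypsin release; potency of inhibitors that lower fluorescence and may act on trypsin instead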
# Paired box protein Pax-8 = Paired box protein Pax-8 (Homo sapiens, UniProt Q06710); assay: inhibitors of PAX8-driven TPO luciferase reporter, dose response, RMG-I cells, cherry-pick (AID 687027); format: functional, cell-based;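 note: luciferase reporter driven by Pax8 target thyroperoxidase promoter measured by SteadyGlo luminescence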
# [9] = A549 cell cytotoxicity, dose response, cytotoxicity control, plate reader, cherry-pick, antagonist series (AID 743412); format: functional, cell-based
# [10] = HepG2 cell cytotoxicity, dose response, cytotoxicity control, plate reader, cherry-pick, antagonist series (AID 743416); format: functional, cell-based
# [11] = LGR2 antagonists, dose response, cell-based, HEK293, CRE-luciferase reporter, cherry pick, set 2 (AID 743343); format: functional;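 note: transfected cells were stimulated with diluted bursicon conditioned medium after compound addition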
# [12] = non-specific cell cytotoxicity, dose response, cytotoxicity control for PAX8 inhibitor project, plate reader, dry powder samples (AID 743021); format: functional, cell-based
# [13] = MC4R antagonists, dose response, counter-screen for LGR2 antagonist project, cell-based, plate reader, cherry pick (AID 743444); format: functional;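 note: transfected HEK 293 cells stimulated with alpha-MSH peptide; potency of inhibitors of the alpha-MSH evoked signal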
# [14] = HEK293 cell cytotoxicity, dose response, cytotoxicity control, plate reader, cherry-picked samples (AID 743446); format: functional, cell-based
# [15] = miR-122 activators in hepatoma reporter cells, dose response, cell-based, Huh7 psiCHECK-miR122, Renilla luciferase, cherry-picked (AID 651956); format: functional;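 note: huh7 hepatoma cells stably carrying a psiCHECK-2 miR-122 sensor plasmid; renilla luciferase signal reporting endogenous miR-122 activity after 48 h compound exposure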
# [16] = HEK293T cytotoxicity, dose response, cytotoxicity control for miR-122 modulator project, cell-based, inhibitor set, cherry-pick, set 2 (AID 720697); format: functional
# [17] = HEK293T cytotoxicity, dose response, cytotoxicity control for miR-122 modulator project, cell-based, activator set, cherry-pick (AID 720690); format: functional;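 note: HEK293T human cells scored for general mammalian cytotoxicity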
# [18] = T. cruzi growth inhibition in host cells, dose response, cell-based, plate reader, dry powder, set 2 (AID 652275); format: functional
# [19] = A375 melanoma cell viability loss, dose response, counter-screen for MITF inhibitor project, CellTiter-Glo luminescence, dry powder, set 4 (AID 624364); format: functional, cell-based; details: A-375;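 note: A375 melanoma cells are MITF independent so this is a counter screen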
# [20] = A375 melanoma cell cytotoxicity, dose response, counter-screen for MITF inhibitor project, CellTiter-Glo luminescence, dry powder, set 2 (AID 624489); format: functional, cell-based; details: A-375;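 note: actives are compounds lowering A375 viability meaning general cytotoxicity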
# [21] = target: Kappa-type opioid receptor (Homo sapiens, UniProt P41145); assay: Late-stage fluorescence-based cell-based dose response assay for antagonists of kappa opioid receptor 1 (OPRK1).; format: functional
# Mu-type opioid receptor = Mu-type opioid receptor (Homo sapiens, UniProt P35372); assay: Late-stage results from the probe development effort to identify antagonists of OPRK1: luminescence-based cell-based dose response OPRM1 counterscreen, Set 2.; format: functional
# [22] = target: Delta-type opioid receptor (Homo sapiens, UniProt P41143); assay: Late-stage results from the probe development effort to identify antagonists of OPRK1: fluorescence-based cell-based dose response OPRD1 counterscreen, Set 2.; format: functional
# [23] = target: Sphingosine 1-phosphate receptor 1 (Homo sapiens, UniProt P21453); assay: Late-stage counterscreen for antagonists of kappa opioid receptor 1 (OPRK1): fluorescence-based cell-based dose response assay to identify antagonists of Sphingosine 1-Phosphate Receptor 1 (S1P1).; format: functional
# [24] = target: C-X-C chemokine receptor type 4 (Homo sapiens, UniProt P61073); assay: SAR analysis of small molecule antagonists of the CXCR6 receptor using a CXCR4 receptor luminescent beta-arrestin counterscreen.; format: functional
# [25] = target: T1, C-C chemokine receptor type 6 (Homo sapiens, UniProt P51684); assay: SAR analysis of small molecule antagonists of the CXCR6 receptor using a CCR6 receptor luminescent beta-arrestin counterscreen.; format: functional
# T1 sequence (P51684 whole entry): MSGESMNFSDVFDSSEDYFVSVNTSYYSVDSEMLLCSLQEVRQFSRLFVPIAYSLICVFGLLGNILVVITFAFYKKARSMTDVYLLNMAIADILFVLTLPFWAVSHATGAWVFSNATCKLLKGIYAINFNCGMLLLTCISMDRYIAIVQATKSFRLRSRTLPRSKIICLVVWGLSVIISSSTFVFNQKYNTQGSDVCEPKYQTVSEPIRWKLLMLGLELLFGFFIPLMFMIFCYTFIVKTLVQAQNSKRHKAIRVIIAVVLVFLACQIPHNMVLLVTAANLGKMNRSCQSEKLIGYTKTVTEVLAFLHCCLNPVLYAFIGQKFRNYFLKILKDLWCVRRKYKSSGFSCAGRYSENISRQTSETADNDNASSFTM
# [26] = HeLa cell cytotoxicity, dose response, cytotoxicity control, 24 h, plate reader, powder samples, set 3 (AID 651864); format: functional, cell-based
# [27] = cytotoxicity in HeLa cells, dose response, cytotoxicity control, cell-based, 24 h, dry powder, set 2 (AID 651774); format: functional
# [28] = inhibitors of non-replicating M. tuberculosis, dose response, luciferase, dry powder (AID 651619); format: functional; details: Mycobacterium tuberculosis
# [29] = inhibitors of non-replicating M. tuberculosis, dose response, luciferase, dry powder (AID 651620); format: functional; details: Mycobacterium tuberculosis
# [30] = target: Oxysterols receptor LXR-beta (Homo sapiens, UniProt P55055); format: functional, cell-based;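 note: agonist activity at LXR measured by a cell-based luminescence readout across a dose range, run as a counterscreen for daf-12 agonists; HEK293 cells with Gal4-LXR fusion and GAL4-driven luciferase reporter; potency for activation of Gal4-LXR reporter so compounds are agonists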
# Kallikrein-7 = Kallikrein-7 (Homo sapiens, UniProt P49862); assay: Fluorescence Intensity-based biochemical primary high throughput dose response assay to identify activators of kallikrein-7 (K7) zymogen.
# [31] = EDANS-DABCYL fluorescence interference, concentration series, dose response, artefact control for kallikrein-7 zymogen activator project, biochemical, fluorescence intensity, triplicate (AID 720493)
# Chain of NAD-dependent protein deacylase sirtuin-5, mitochondrial (Q9NXA8 whole entry): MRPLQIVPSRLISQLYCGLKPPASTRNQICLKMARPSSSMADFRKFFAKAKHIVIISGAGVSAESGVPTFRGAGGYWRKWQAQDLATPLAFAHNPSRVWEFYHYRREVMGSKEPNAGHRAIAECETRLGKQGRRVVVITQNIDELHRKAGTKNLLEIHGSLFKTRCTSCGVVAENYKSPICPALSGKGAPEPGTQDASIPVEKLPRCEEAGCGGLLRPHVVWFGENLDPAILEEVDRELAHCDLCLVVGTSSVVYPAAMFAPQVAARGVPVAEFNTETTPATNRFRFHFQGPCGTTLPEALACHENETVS
# Chain of Sphingosine 1-phosphate receptor 1 (P21453 whole entry): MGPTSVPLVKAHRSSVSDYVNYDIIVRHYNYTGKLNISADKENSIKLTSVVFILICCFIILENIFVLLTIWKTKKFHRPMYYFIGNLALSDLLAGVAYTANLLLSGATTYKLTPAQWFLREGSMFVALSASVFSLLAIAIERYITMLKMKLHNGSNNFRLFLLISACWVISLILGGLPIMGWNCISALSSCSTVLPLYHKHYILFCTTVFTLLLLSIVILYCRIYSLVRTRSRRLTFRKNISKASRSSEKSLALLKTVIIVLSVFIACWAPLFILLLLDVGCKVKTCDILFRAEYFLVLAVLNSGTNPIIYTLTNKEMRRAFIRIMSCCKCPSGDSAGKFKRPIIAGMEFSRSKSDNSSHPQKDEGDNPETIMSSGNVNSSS
# Chain of Oxysterols receptor LXR-beta (P55055 whole entry, the tested form may be a part): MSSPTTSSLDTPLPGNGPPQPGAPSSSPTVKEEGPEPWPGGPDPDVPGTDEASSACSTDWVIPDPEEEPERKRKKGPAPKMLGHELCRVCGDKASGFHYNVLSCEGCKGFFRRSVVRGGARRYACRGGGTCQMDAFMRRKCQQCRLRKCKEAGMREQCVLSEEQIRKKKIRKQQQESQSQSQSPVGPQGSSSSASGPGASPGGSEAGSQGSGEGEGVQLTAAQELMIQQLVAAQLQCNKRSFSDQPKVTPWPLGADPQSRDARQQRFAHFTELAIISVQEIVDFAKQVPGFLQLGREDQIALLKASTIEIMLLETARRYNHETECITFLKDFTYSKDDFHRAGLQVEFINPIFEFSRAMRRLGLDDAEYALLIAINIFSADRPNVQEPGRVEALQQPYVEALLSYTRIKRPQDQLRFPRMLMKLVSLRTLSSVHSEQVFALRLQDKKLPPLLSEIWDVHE
# Chain of fMet-Leu-Phe receptor (P21462 whole entry): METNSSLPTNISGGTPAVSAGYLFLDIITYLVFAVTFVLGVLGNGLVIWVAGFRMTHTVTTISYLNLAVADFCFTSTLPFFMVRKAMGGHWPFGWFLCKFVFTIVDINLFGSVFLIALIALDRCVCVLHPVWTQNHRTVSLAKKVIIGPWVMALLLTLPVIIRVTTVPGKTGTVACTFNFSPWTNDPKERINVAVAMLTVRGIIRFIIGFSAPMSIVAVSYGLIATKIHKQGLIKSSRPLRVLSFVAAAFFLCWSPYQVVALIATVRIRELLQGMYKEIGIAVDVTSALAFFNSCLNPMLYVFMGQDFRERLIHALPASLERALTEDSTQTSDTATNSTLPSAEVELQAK
# Chain of Paired box protein Pax-8 (Q06710 whole entry): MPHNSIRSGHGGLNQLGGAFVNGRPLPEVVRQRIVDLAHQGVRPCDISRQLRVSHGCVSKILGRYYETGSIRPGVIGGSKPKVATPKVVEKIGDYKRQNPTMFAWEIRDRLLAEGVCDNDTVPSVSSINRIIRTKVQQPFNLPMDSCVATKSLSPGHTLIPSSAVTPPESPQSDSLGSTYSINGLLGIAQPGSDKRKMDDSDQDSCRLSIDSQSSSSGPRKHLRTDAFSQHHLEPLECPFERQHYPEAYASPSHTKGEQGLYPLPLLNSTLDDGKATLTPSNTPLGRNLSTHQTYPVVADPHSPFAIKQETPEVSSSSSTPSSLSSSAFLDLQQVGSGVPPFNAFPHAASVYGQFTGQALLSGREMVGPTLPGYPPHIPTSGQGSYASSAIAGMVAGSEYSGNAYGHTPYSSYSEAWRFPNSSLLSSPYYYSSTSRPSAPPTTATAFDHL
# Chain of C-X-C chemokine receptor type 4 (P61073 whole entry): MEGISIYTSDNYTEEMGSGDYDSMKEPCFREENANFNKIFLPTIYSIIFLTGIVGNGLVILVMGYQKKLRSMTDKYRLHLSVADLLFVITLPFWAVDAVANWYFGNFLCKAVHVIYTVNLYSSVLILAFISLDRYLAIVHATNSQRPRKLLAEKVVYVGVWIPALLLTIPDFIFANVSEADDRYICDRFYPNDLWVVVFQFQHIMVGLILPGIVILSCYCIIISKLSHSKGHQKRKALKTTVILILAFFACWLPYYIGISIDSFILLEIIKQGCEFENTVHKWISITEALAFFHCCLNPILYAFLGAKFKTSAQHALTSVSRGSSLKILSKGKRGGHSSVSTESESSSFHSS
# Chain of Kallikrein-7 (P49862 whole entry): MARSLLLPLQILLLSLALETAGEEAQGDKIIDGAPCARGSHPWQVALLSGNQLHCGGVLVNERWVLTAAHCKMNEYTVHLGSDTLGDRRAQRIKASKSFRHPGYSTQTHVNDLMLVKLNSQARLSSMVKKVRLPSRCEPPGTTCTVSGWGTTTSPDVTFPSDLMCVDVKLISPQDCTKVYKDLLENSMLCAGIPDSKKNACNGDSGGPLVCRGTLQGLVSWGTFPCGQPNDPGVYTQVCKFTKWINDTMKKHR
# Chain of Kappa-type opioid receptor (P41145 whole entry): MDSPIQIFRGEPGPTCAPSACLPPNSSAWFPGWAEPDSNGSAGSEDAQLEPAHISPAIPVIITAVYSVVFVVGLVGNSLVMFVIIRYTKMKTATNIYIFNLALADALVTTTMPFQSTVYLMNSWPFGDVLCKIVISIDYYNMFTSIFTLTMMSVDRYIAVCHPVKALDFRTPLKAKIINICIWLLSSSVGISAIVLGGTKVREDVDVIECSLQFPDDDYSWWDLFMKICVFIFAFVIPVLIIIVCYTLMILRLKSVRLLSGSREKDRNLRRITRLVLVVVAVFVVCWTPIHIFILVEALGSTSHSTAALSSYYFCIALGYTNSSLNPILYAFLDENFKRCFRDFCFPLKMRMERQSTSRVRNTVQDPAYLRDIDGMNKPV
# Chain of Mu-type opioid receptor (P35372 whole entry): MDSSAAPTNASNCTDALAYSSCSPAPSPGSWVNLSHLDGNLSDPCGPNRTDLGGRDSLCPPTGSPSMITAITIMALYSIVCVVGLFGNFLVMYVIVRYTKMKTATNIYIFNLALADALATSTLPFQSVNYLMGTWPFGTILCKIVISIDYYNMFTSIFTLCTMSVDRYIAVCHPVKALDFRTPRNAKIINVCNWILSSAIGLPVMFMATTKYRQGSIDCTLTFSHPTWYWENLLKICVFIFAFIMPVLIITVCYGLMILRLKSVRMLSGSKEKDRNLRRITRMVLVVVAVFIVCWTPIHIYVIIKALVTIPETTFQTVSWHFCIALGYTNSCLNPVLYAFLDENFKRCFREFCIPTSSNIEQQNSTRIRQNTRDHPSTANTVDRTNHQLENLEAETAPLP
# Chain of Cytochrome P450 2C9 (P11712 whole entry, the tested form may be a part): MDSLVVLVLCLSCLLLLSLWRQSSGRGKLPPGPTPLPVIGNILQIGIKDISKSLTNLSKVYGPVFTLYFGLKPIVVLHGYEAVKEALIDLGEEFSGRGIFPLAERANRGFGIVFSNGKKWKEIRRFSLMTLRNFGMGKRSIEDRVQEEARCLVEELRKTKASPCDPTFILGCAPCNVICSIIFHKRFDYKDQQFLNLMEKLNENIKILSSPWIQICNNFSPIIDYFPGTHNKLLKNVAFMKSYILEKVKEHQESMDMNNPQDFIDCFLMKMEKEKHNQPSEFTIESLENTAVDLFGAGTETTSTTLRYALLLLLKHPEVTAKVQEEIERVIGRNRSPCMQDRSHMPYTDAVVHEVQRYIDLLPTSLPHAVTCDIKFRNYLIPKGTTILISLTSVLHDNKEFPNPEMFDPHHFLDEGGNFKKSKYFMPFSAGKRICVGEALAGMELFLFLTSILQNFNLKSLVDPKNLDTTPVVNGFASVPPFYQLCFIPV
# Chain of Delta-type opioid receptor (P41143 whole entry): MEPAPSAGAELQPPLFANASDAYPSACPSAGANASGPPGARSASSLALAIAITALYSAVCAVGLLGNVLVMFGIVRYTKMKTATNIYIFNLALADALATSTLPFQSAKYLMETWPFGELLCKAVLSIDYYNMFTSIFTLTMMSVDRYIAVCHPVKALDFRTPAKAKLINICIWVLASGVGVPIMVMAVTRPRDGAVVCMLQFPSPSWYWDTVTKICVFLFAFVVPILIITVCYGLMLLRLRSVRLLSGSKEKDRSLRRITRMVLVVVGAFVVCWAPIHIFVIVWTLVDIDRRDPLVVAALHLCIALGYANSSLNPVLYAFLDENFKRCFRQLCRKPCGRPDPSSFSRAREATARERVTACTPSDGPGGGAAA
smiles,measurement,setting,value
Cc1ccc(C2C(C(=O)c3ccc(Cl)cc3)=C(O)C(=O)N2CC2CCCO2)o1 (stereo not drawn),Ki,fMet-Leu-Phe receptor,11.6 µM (active)
same,AC50,Cytochrome P450 2C9,22.4 µM (inconclusive)
Cc1ccc2c(CN3CCN(S(=O)(=O)c4ccc5c(c4)OCCO5)CC3)cc(=O)oc2c1C,AC50,[1],4.58 µM (active)
same,AC50,[2],0.424 µM (active)
same,AC50,[3],> 70 µM (inactive)
same,AC50,[4],4.06 µM (active)
same,AC50,[5],3.95 µM (active) and 5.68 µM (active) and 3.52 µM (active)
same,AC50,[6],> 70 µM (inactive)
O=C(Nc1nnc(-c2ccc(Cl)cc2)o1)C1CCCCC1,AC50,[7],> 160 µM (inactive)
COc1cc(NC(=O)c2nccn2C)cc(C(=O)Nc2cccc(C(F)(F)F)c2)c1,AC50,BHK-21,26.2 µM (active)
same,AC50,A549,19.7 µM (active)
CCCCC(=O)Nc1ccc2c(c1)nc(CCNC(=O)c1ccco1)n2C,AC50,[8],> 30 µM (inactive)
Nc1[nH]cnc2c(C3OC(CO)C(O)C3O)cnc1-2 (stereo not drawn),AC50,Paired box protein Pax-8,< 0.26 µM (active)
same,AC50,[9],< 0.05 µM (active)
same,AC50,[10],0.422 µM (active)
same,AC50,[11],0.407 µM (active)
same,AC50,[12],19.5 µM (active)
same,AC50,[13],0.539 µM (active)
same,AC50,[14],0.832 µM (active)
C[C@H](CO)N1C[C@H](C)[C@H](CN(C)Cc2ccc(C(F)(F)F)cc2)OCCCC[C@H](C)Oc2ccc(NC(=O)CCCN(C)C)cc2C1=O,AC50,[15],10.3 µM (active)
same,AC50,[16],17.9 µM (active)
same,AC50,[17],15.7 µM (active)
O=C(CN1CCOCC1)N1CCCCN2[C@@H](CO)[C@H](c3ccc(-c4ccccc4)cc3)[C@@H]2C1,AC50,[18],2.39 µM (active)
C=CCNC1=C(NS(=O)(=O)c2ccc(Br)cc2)C(=O)c2ccccc2C1=O,AC50,[19],> 70 µM (inactive)
same,AC50,[20],> 70 µM (inactive)
COc1ccccc1C1CCN(Cc2ccc3c(c2)CCC(C)(C)O3)CC1,IC50,[21],4.66 µM (active)
same,IC50,Mu-type opioid receptor,7.4 µM (active)
same,IC50,[22],> 50 µM (inactive)
same,IC50,[23],> 50 µM (inactive)
COc1ccc(CN2C3CCCC2CC(NC(=O)c2cc(OC)c(OC)c(OC)c2)C3)cc1 (stereo not drawn),IC50,[24],57.5 µM (inactive)
same,IC50,[25],> 79 µM (inactive)
CCn1nnnc1NCc1ccc(C(C)C)cc1,AC50,[26],144 µM (active)
same,AC50,[27],> 70 µM (inactive)
Fc1ccc(-c2nnc(SCc3cn(Cc4ccccc4)nn3)o2)cc1,IC90,[28],1 µM (active)
same,IC90,[29],1 µM (active)
Cc1ccsc1/C=N/NC(=O)c1sccc1C,EC50,[30],> 67.5 µM (inactive)
COc1ccc(-c2coc3cc(O)c(OC)cc3c2=O)cc1 [CASTANIN],EC50,Kallikrein-7,9 µM (active)
same,EC50,[31],> 7.73 µM (active)
